Results published in ChEMBL document CHEMBL1201862, “PubChem BioAssay data set” (2004).
The source made the active and inactive calls.

How the values were obtained:
[1] = Luminescence Cell-Based Dose Confirmation HTS to Identify Activators of 5'UTR Stem-Loop Driven Alpha-Synuclein mRNA Translation in H4 Neuroglioblastoma Cells. [Related pubchem assays: 1829 (Project Summary), 1814 (Primary HTS)]; type: functional
[2] = Luminescence Cell-Based Dose Response HTS to Identify Activators of Luciferase Translation or Activity in H4 […] Cells. [Related pubchem assays: 1829 (Project Summary), 1814 (Primary HTS)]; type: functional
[3] = test system: H4; experiment: Luminescence Cell-Based Dose Response HTS to Identify Activators of 5'UTR Stem-Loop Driven Prion Protein mRNA Translation in H4 Neuroglioblastoma Cells. [Related pubchem assays: 1829 (Project Summary), 1814 (Primary HTS)]; type: functional; conditions: Homo sapiens
[4] = molecular target: T1, Rac GTPase-activating protein 1 (Homo sapiens, UniProt Q9H0H5); experiment: blockers of MgcRacGAP-driven Rac1 GTP hydrolysis – biochemical, ADP Hunter fluorescence, primary and confirmatory, confirmation (AID 624330); type: functional
T1 sequence (Q9H0H5 whole entry): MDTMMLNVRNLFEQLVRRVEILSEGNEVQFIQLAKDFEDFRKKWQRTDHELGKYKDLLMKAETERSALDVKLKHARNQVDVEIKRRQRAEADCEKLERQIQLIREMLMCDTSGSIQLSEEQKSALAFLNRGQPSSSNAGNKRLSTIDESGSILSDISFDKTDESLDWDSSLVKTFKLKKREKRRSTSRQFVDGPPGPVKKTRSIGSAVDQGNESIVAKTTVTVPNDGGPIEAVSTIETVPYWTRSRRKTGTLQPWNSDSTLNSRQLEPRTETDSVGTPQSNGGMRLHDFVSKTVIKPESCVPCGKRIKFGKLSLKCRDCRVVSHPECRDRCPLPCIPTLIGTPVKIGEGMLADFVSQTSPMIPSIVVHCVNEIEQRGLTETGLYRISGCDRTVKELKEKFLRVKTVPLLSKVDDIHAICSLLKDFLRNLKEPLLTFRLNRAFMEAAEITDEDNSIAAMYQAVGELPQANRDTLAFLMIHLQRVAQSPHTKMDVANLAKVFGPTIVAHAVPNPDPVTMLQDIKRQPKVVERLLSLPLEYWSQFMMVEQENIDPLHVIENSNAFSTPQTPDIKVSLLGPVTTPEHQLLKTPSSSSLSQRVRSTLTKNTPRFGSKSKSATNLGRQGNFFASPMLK

[5] = molecular target: Cytochrome P450 3A4 (Homo sapiens, UniProt P08684);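 also: CYP3A4 tested as one member of a cytochrome P450 panel screen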
[6] = molecular target: T2, Cytochrome P450 1A2 (Homo sapiens, UniProt P05177);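 also: PubChem cytochrome P450 panel assay, CYP1A2 panel member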
T2 sequence (P05177 whole entry): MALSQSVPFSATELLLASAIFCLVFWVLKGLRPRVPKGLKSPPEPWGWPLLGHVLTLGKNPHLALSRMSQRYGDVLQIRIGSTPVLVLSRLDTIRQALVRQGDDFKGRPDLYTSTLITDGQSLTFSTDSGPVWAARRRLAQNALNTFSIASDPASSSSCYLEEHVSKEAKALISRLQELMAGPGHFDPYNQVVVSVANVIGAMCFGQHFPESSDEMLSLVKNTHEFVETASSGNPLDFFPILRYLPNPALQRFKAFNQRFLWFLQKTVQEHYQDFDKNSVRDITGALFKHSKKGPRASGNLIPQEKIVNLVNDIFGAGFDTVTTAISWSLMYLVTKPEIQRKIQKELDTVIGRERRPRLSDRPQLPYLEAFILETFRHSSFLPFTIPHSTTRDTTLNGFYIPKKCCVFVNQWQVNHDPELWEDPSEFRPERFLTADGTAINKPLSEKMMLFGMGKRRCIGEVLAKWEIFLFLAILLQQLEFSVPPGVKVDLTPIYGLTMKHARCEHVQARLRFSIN

[7] = molecular target: Cytochrome P450 2D6 (Homo sapiens, UniProt P10635);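 also: CYP2D6 member of a cytochrome P450 panel assay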
[8] = molecular target: Paired box protein Pax-8 (Homo sapiens, UniProt Q06710); experiment: PAX8 transcriptional activity inhibition in RMG-I – RMG-I cells, luciferase, cherry-pick, dose response (AID 687027); type: functional, cell-based;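 also: luciferase reporter driven by Pax8 target thyroperoxidase promoter measured by SteadyGlo luminescence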
[9] = Luminescence Cell-Based Dose Confirmation HTS to Identify Inhibitors of Platelet Dense Granule Release. [Related pubchem assays: 1663 (Primary HTS), 1678 (Summary of Project)]; type: functional
[10] = molecular target: Luciferin 4-monooxygenase (Photinus pyralis, UniProt P08659); experiment: inhibition of purified Photinus pyralis luciferase – biochemical, luminescence, dose response (AID 1891)
[11] = Luminescence Cell-Based Dose Retest to Confirm Inhibitors of Cancer Stem Cells. [Related pubchem assays (depositor defined):AID2717, AID2721]; type: functional; conditions: Homo sapiens
[12] = fluconazole-exposed Candida albicans growth modulators – fluorescence, retest, confirmation (AID 2467); type: functional, cell-based
[13] = NIH-3T3 fibroblast cytotoxicity, dose response, cytotoxicity control, cell-based, fluorescence, Alamar Blue, secondary assay (AID 2327); type: functional;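 also: NIH-3T3 mouse fibroblasts cultured with fluconazole at 8 µg/mL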
[14] = test system: INS1; experiment: INS-1E survival protection against cytokine death – cell-based, luminescence, retest, dose response (AID 449756); type: functional; conditions: Rattus norvegicus;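 also: cell death triggered by IL-1 beta plus TNF-alpha plus IFN-gamma mixture; protective hits raise ATP signal compared with cytokine alone wells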

Sequence of Paired box protein Pax-8 (Q06710 whole entry): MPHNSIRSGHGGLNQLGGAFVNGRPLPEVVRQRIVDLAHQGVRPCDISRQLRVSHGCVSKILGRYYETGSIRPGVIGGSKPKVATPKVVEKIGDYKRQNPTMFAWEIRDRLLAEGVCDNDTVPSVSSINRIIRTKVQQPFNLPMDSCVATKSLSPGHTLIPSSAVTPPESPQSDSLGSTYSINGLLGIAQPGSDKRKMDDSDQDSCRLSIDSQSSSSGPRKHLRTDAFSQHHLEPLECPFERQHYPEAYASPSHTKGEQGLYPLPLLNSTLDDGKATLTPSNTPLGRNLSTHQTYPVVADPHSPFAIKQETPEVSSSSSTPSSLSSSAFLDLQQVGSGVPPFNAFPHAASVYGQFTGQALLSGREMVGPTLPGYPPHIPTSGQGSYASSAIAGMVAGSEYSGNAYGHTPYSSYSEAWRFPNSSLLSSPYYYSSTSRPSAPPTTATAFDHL
Sequence of Luciferin 4-monooxygenase (P08659 whole entry): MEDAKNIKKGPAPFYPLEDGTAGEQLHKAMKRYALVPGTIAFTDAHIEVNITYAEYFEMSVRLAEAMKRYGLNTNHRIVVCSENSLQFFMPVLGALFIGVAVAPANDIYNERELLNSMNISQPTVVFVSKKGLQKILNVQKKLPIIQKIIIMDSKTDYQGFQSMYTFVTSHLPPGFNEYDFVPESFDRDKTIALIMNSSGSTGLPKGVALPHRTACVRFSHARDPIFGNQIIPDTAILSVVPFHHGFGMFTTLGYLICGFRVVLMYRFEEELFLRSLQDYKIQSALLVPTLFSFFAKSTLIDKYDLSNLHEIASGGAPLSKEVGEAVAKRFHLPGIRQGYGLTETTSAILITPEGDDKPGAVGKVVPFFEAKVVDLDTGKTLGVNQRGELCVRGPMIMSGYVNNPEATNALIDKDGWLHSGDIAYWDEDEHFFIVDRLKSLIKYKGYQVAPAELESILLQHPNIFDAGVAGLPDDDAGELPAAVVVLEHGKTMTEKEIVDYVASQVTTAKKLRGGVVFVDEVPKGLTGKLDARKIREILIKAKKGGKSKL
Sequence of Cytochrome P450 3A4 (P08684 whole entry): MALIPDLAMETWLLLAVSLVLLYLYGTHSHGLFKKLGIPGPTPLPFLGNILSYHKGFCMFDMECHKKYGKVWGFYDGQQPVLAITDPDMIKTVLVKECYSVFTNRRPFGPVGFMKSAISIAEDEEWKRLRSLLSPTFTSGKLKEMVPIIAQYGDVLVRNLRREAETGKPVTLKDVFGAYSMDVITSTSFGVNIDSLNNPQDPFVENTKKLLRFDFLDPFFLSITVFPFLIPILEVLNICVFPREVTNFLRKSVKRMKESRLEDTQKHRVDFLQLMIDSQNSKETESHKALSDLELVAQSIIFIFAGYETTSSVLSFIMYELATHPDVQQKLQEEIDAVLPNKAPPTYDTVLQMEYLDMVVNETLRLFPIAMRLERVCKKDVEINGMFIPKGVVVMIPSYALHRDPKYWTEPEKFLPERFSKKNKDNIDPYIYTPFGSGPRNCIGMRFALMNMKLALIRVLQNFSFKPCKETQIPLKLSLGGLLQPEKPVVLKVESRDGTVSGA
Sequence of Cytochrome P450 2D6 (P10635 whole entry): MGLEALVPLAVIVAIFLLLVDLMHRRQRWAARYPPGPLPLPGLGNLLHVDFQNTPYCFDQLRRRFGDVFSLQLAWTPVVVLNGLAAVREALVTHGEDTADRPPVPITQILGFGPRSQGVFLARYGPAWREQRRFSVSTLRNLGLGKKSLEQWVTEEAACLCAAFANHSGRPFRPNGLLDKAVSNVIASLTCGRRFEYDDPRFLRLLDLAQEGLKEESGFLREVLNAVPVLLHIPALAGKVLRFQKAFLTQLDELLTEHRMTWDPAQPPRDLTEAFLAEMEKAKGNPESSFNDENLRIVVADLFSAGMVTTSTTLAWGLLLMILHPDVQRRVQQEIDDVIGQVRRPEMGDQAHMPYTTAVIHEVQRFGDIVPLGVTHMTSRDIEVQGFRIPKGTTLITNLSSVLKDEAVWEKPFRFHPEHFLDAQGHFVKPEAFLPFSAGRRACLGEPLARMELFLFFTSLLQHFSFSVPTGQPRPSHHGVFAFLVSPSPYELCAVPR

For `Cc1c(C(=O)Nc2ccccc2)sc2nc(-c3ccccc3)cn12`, the EC50 [1] was 4.41 µM (active), the EC50 [2] was 6.59 µM (active) and the EC50 [3] was 44.2 µM (active).
For `COCCCn1c(=S)[nH]c2sc3c(c2c1=O)CCCC3`, the IC50 [4] was 32.9 µM (active).
With `COc1cc2c(CCNC(C)=O)c[nH]c2cc1O` the AC50 [5] was 15.8 µM (inconclusive), the AC50 [6] was 31.6 µM (inconclusive) and the IC50 [4] was 52.3 µM (active). For the same compound, the AC50 [7] was 39.8 µM (inconclusive).
For `O=C(/C=C/c1ccc(S(=O)(=O)NCc2ccco2)cc1)NCc1ccccc1Cl`, the EC50 [1] was > 120 µM (not active), the EC50 [2] was > 120 µM (not active) and the EC50 [3] was 16.4 µM (active).
For `O=[N+]([O-])c1ccccc1N/N=C1\CCc2ccccc21`, the EC50 [2] was 0.268 µM (active) and the EC50 [3] was 2.24 µM (active).
With `C[C@@H]1CCCCO[C@H](CN(C)S(=O)(=O)c2ccc(Cl)cc2)[C@H](C)CN([C@@H](C)CO)C(=O)c2cc(NS(=O)(=O)c3ccc(F)cc3)ccc2O1` the AC50 [8] was 4.33 µM (active).
For `COc1ccc(C(=O)NC2CCSc3ccccc32)cc1` (stereo not drawn), the EC50 [9] was > 112 µM (not active) and the EC50 [10] was > 112 µM (not active).
With `Cc1ccc(C(=O)Cn2ncsc2=N)cc1` the EC50 [1] was 13.5 µM (active) and the EC50 [2] was 16.8 µM (active).
For `CCc1cc2c(=O)c(-c3nc4ccccc4n3C)c(COCC(=O)O)oc2cc1O`, the EC50 [1] was > 120 µM (not active), the EC50 [2] was > 120 µM (not active) and the EC50 [3] was > 120 µM (not active).
With `O=C(Nc1ccc2c(c1)OCCO2)NC12CC3CC(CC(C3)C1)C2` the EC50 [1] was 5.22 µM (active), the EC50 [2] was 0.516 µM (active) and the EC50 [3] was > 120 µM (not active).
For `COc1cc(OC)cc(C(=O)Nc2ccc3c(c2)OCCO3)c1`, the EC50 [9] was 6.36 µM (active) and the EC50 [10] was 3.95 µM (active).
In the case of `C=CCNc1ncnc2c1[nH]c1ccc(Cl)cc12`, the EC50 [1] is reported as 89.5 µM (active) and the EC50 [2] is reported as 43 µM (active).
With `Cc1ccc(C2NNC(=O)C2NC(=O)c2ccccc2)cc1` (stereo not drawn) the EC50 [1] was 11.3 µM (active), the EC50 [2] was 9.08 µM (active) and the EC50 [3] was 48.6 µM (active).
In the case of `CCCCCC(=O)Nc1nc(C)c(-c2csc(Nc3cc(OC)ccc3OC)n2)s1`, the AC50 [11] is reported as 1.29 µM (active).
For `CC1=NN(C(C#N)c2cccc([N+](=O)[O-])c2)C(C)(C)C1` (stereo not drawn), the EC50 [9] was > 112 µM (not active) and the EC50 [10] was > 112 µM (not active).
In the case of `CC(=O)N1CCC(=NNc2nc3ccccc3s2)CC1`, the EC50 [12] is reported as > 38 µM (not active) and the EC50 [13] is reported as > 160 µM (inactive).
With `COc1ccccc1-c1ccc2c(c1)O[C@H](CN(C)Cc1ccc3c(c1)OCO3)[C@H](C)CN([C@@H](C)CO)S2(=O)=O` the AC50 [8] was 13.5 µM (active).
For `COC(=O)c1c(-c2cccs2)csc1NC(=O)c1cccnc1`, the EC50 [12] was 2.49 µM (active) and the EC50 [13] was > 160 µM (inactive).
For `N#Cc1c(Cl)nsc1NC(=O)c1ccccc1`, the AC50 [14] was 3.29 µM (active), the EC50 [12] was 0.626 µM (active) and the EC50 [13] was 22.2 µM (active).
With `CN(C)C(=O)CN1C(=O)C2CC=C(Cl)CC2C1=O` (stereo not drawn) the EC50 [9] was > 112 µM (not active) and the EC50 [10] was > 112 µM (not active).
In the case of `CN1CCN(c2ccc(NC(=O)c3ccc(Cl)cc3)cn2)CC1`, the AC50 [11] is reported as 19.8 µM (active).
For `Cc1ccc(C(=O)N/N=C\c2ccc(-c3ccc(Cl)c(Cl)c3)o2)cn1`, the AC50 [11] was 3.71 µM (active).
In the case of `CCc1nnc(NC(=O)CSc2nc3c(cc2C#N)CCC3)s1`, the EC50 [2] is reported as 0.131 µM (active) and the EC50 [3] is reported as > 120 µM (not active).
With `O=C(N/N=C/c1cc(Cl)ccc1O)C(=O)Nc1ccccc1OC(F)(F)C(F)F` the AC50 [11] was 2.35 µM (active) and the AC50 [14] was 2.7 µM (active).
In the case of `O=C1C2CCN(CC2)C1Cc1ccc(OCc2ccccc2)cc1` (stereo not drawn), the EC50 [12] is reported as 2.41 µM (active) and the EC50 [13] is reported as 24 µM (inconclusive).
For `Oc1ccc(C[C@H]2CNC(=S)N2CC2CCCN2C[C@H](Cc2ccc(O)cc2)N2C[C@H](Cc3ccc(O)cc3)N(CC3CCCCCC3)C2=S)cc1` (stereo partly drawn), the AC50 [8] was 5.35 µM (active).
In the case of `CC(=O)Oc1ccc(-c2cc3c(OC(C)=O)cc(OC(C)=O)cc3oc2=O)cc1`, the EC50 [9] is reported as 13.7 µM (active) and the EC50 [10] is reported as > 112 µM (not active).
For `Oc1ccc(Cc2ccccc2)c2cccnc12`, the AC50 [8] was 4.48 µM (active).
For `O=C(COc1ccc2c(c1)CCC2)NCc1cccc(Cl)c1`, the EC50 [12] was > 38 µM (not active) and the EC50 [13] was > 160 µM (inconclusive).
In the case of `COc1cc(/C=C/C(=O)OCC(=O)NC(=O)NC(C)(C)C)ccc1O`, the IC50 [4] is reported as 57.5 µM (active).
In the case of `Cc1cc(C)n2nc(Nc3ccccc3)cc2n1`, the EC50 [1] is reported as 6.86 µM (active) and the EC50 [2] is reported as 15.8 µM (active).
In the case of `Cc1cnc(C(=O)N2CCCC(C(=O)c3ccc(Cl)cc3C)C2)cn1` (stereo not drawn), the EC50 [9] is reported as > 112 µM (not active) and the EC50 [10] is reported as > 112 µM (not active).
With `C[C@H]1CCCCO[C@@H](CN(C)C(=O)c2ccccc2)[C@@H](C)CN([C@@H](C)CO)C(=O)c2cc(NC(=O)Nc3ccc(C(F)(F)F)cc3)ccc2O1` the AC50 [8] was 3.76 µM (active).
For `O=C(NCc1ccccc1)/C(NC(=O)c1ccccc1)=C(/Sc1ccccn1)c1ccccc1`, the EC50 [9] was > 112 µM (not active) and the EC50 [10] was > 112 µM (not active).
In the case of `COC(=O)C1(Cc2cc(-c3ccccc3)no2)CCN(C(=O)OC(C)(C)C)CC1`, the EC50 [1] is reported as 9.17 µM (active), the EC50 [2] is reported as 49.6 µM (active) and the EC50 [3] is reported as 55.7 µM (active).
With `COc1cc(C2NCC(c3ccc(Cl)cc3Cl)c3c2[nH]c2ccccc32)cc(OC)c1OC` (stereo not drawn) the AC50 [11] was 3.7 µM (active).
In the case of `COc1cc(/C=C2/C(=N)N3C=C(C)SC3=NC2=O)ccc1O`, the IC50 [4] is reported as 71.9 µM (active).
For `COC(=O)Cc1c(C)c2ccc(OCC(=O)N3CCC(C)CC3)c(C)c2oc1=O`, the EC50 [9] was 22.1 µM (active) and the EC50 [10] was > 112 µM (not active).
In the case of `COc1cc(-c2nc(-c3ccc(NC(=O)c4ccc(Br)o4)cc3)no2)cc(OC)c1OC`, the AC50 [11] is reported as 0.725 µM (active).
With `CSc1nc2nccc(/C=C\c3ccccc3)n2n1` the EC50 [1] was > 120 µM (not active), the EC50 [2] was > 120 µM (not active) and the EC50 [3] was > 120 µM (not active).
For `O=C(CNC(=O)c1cn2ccccc2n1)Nc1ccc(F)c(F)c1`, the EC50 [1] was 0.453 µM (active), the EC50 [2] was 45.5 µM (active) and the EC50 [3] was > 120 µM (not active).
In the case of `NC(=O)CC(NC(=O)Cc1cccc2ccccc12)c1ccc(N2CCc3ccccc3C2)c([N+](=O)[O-])c1` (stereo not drawn), the AC50 [11] is reported as 12.2 µM (active).
For `C=CCOc1ccccc1CN1CCCN(C)CC1`, the IC50 [4] was 178 µM (active).
With `CCOc1cccc(-c2cc(-c3nnc(S)n3CC)c3ccccc3n2)c1` the EC50 [12] was 4.13 µM (active) and the EC50 [13] was > 160 µM (inactive).
In the case of `CN1C(=O)/C(=C/c2cn(CC(=O)N3CCCCC3)c3ccccc23)NC1=S`, the EC50 [12] is reported as > 38 µM (not active) and the EC50 [13] is reported as > 150 µM (inactive).
In the case of `Cn1c(S)nnc1-c1cnn(-c2ccccc2)c1N`, the EC50 [9] is reported as 4.85 µM (active) and the EC50 [10] is reported as > 112 µM (not active).
